Structures are written as SMILES.

The target of this assay is Human recombinant carboxy-terminal his-tagged LDHA (amino acids 2-332) (Homo sapiens, UniProt P00338). Put plainly: LDHA enzyme inhibition assay (NADH fluorescence). Particulars: LDHA IC50 (μM), 1 nM LDHA, NADH and pyruvate, stereochemistry of tested sample given.
As for `Cn1ccnc1COc1cccc(C2(c3ccsc3)CC(=O)C(Sc3ccccc3Cl)C(=O)N2)n1` (stereo not drawn) [Example 229, 3-(2-chlorophenyl)sulfanyl-6-[6-[(1-methylimidazol-2-yl)methoxy]-2-pyridyl]-6-(3-thienyl)piperidine-2,4-dione], the half-inhibitory concentration (IC50) is 0.011 µM.

As for `CC(C)(C)OCCOc1cccc(C2(c3ccsc3)CC(=O)C(Sc3ccccc3Cl)C(=O)N2)n1` (stereo not drawn) [Example 230, 6-[6-(2-tert-butoxyethoxy)-2-pyridyl]-3-(2-chloro-phenyl)sulfanyl-6-(3-thienyl)piperidine-2,4-dione], the IC50 worked out at 0.022 µM.

In the case of `CC(Oc1cccc(C2(c3ccsc3)CC(=O)C(Sc3ccccc3Cl)C(=O)N2)n1)C(F)(F)F` (stereo not drawn) [Example 231, 3-(2-chlorophenyl)sulfanyl-6-(3-thienyl)-6-[6-(2,2,2-trifluoro-1-methyl-ethoxy)-2-pyridyl]piperidine-2,4-dione], the IC50 was 0.009 µM. Under `O=C1CC(c2ccsc2)(c2cccc(N3CC(C4CCOCC4)C3)n2)NC(=O)C1Sc1ccccc1Cl` (stereo not drawn) [Example 232, 3-(2-chlorophenyl)sulfanyl-6-[6-(3-tetrahydropyran-4-ylazetidin-1-yl)-2-pyridyl]-6-(3-thienyl) piperidine-2,4-dione] stands 0.009 µM; under `O=C1CC(c2ccsc2)(c2cccc(N3CC(C4CCOCC4)C3)n2)NC(=O)C1Sc1ccccc1Cl` (stereo not drawn) [Example 240, 3-(2-chlorophenyl)sulfanyl-6-[6-(3-tetrahydropyran-4-ylazetidin-1-yl)-2-pyridyl]-6-(3-thienyl) piperidine-2,4-dione], 0.003 µM.

Take `O=C(NCC1CC1)c1cccc(C2(c3ccsc3)CC(=O)C(Sc3ccccc3Cl)C(=O)N2)n1` (stereo not drawn) [Example 242, 6-[5-(2-chlorophenyl)sulfanyl-4,6-dioxo-2-(3-thienyl)-2-piperidyl]-N-(cyclopropylmethyl) pyridine-2-carboxamide]: the 50% inhibitory concentration (IC50) turned out to be 0.004 µM. Under `COCC(C)Oc1cccc(C2(c3ccsc3)CC(=O)C(Sc3ccccc3Cl)C(=O)N2)n1` (stereo not drawn) [Example 246, 3-(2-chlorophenyl)sulfanyl-6-[6-(2-methoxy-1-methyl-ethoxy)-2-pyridyl]-6-(3-thienyl)piperidine-2,4-dione] stands 0.01 µM; under `CCOCC(C)Oc1cccc(C2(c3ccsc3)CC(=O)C(Sc3ccccc3Cl)C(=O)N2)n1` (stereo not drawn) [Example 247, 3-((2-chlorophenyl)thio)-6-(6-((1-ethoxypropan-2-yl)oxy)pyridin-2-yl)-6-(thiophen-3-yl)piperidine-2,4-dione], 0.01 µM; under `CCC1(COc2cccc([C@@]3(c4ccsc4)CC(=O)C(Sc4ccccc4Cl)C(=O)N3)n2)COC1` (stereo partly drawn) [Example 248], 0.005 µM.

In the case of `COC(C)(C)CCOc1cccc(C2(c3ccsc3)CC(=O)C(Sc3ccccc3Cl)C(=O)N2)n1` (stereo not drawn) [Example 249, 3-(2-chlorophenyl)sulfanyl-6-[6-(3-methoxy-3-methyl-butoxy)-2-pyridyl]-6-(3-thienyl)piperidine-2,4-dione], the IC50 was 0.099 µM. Under `CC/C=C/COc1cccc(C2(c3ccsc3)CC(=O)C(Sc3ccccc3Cl)C(=O)N2)n1` (stereo not drawn) [Example 250, 3-(2-chlorophenyl)sulfanyl-6-(6-pent-2-enoxy-2-pyridyl)-6-(3-thienyl) piperidine-2,4-dione] stands 0.036 µM; under `O=C1CC(c2ccsc2)(c2cccc(OCC3CCC(CO)CC3)n2)NC(=O)C1Sc1ccccc1Cl` (stereo not drawn) [Example 253], 0.081 µM; under `COc1cc(-c2cccc(C3(c4ccsc4)CC(=O)C(Sc4ccccc4Cl)C(=O)N3)n2)ccc1F` (stereo not drawn) [Example 255, 3-((2-chlorophenyl)thio)-6-(6-(4-fluoro-3-methoxy-phenyl)pyridin-2-yl)-6-(thiophen-3-yl)piperidine-2,4-dione], 0.102 µM. Under `O=C1CC(c2ccsc2)(c2cccc(Cc3ccc(F)cc3)n2)NC(=O)C1Sc1ccccc1Cl` (stereo not drawn) [Example 257, 3-((2--chlorophenyl)thio)-6-(6-(4-fluorobenzyl)pyridin-2-yl)-6-(thiophen-3-yl)piperidine-2,4-dione] stands 0.016 µM; under `O=C1CC(c2ccsc2)(c2cccc(Cc3ccc(F)cc3F)n2)NC(=O)C1Sc1ccccc1Cl` (stereo not drawn) [Example 258, 3-((2-chlorophenyl)thio)-6-(6-(2,4-difluorobenzyl)pyridin-2-yl)-6-(thiophen-3-yl)piperidine-2,4-dione], 0.087 µM. The value for `COc1cc(Cc2cccc(C3(c4ccsc4)CC(=O)C(Sc4ccccc4Cl)C(=O)N3)n2)ccc1F` (stereo not drawn) [Example 259, 3-((2-chlorophenyl)thio)-6-(6-(4-fluoro-3-methoxy-benzyl)pyridin-2-yl)-6-(thiophen-3-yl)piperidine-2,4-dione] was 0.011 µM. In the case of `O=C1CC(c2ccsc2)(c2cccc(-c3ccncc3)n2)NC(=O)C1Sc1ccccc1Cl` (stereo not drawn) [Example 260, 6-([2,4′-bipyridin]-6-yl)-3-((2-chlorophenyl)thio)-6-(thiophen-3-yl)piperidine-2,4-dione], the concentration for half-maximal inhibition (IC50) was 0.006 µM. The value for `O=C1CC(c2ccsc2)(c2cccc(-c3ccnc(N4CCOCC4)c3)n2)NC(=O)C1Sc1ccccc1Cl` (stereo not drawn) [Example 261, 3-((2-chlorophenyl)thio)-6-(2′-morpholino-[2,4′-bipyridin]-6-yl)-6-(thiophen-3-yl)piperidine-2,4-dione] was 0.039 µM. The value for `CCN(c1ccc(F)cc1)c1cccc(C2(c3ccsc3)CC(=O)C(Sc3ccccc3Cl)C(=O)N2)n1` (stereo not drawn) [Example 263, 3-((2-chlorophenyl)thio)-6-(6-(ethyl(4-fluorophenyl)amino)pyridin-2-yl)-6-(thiophen-3-yl)piperidine-2,4-dione] was 0.086 µM; that for `Cc1cc(Nc2cccc(C3(c4ccsc4)CC(=O)C(Sc4ccccc4Cl)C(=O)N3)n2)n(C)n1` (stereo not drawn) [Example 264, 3-((2-chlorophenyl)thio)-6-(6-((1,3-dimethyl-1H-pyrazol-5-yl)amino)pyridin-2-yl)-6-(thiophen-3-yl)piperidine-2,4-dione] was 0.077 µM; that for `O=C1CC(c2ccsc2)(c2cccc(CC3CCOCC3)n2)NC(=O)C1Sc1ccccc1Cl` (stereo not drawn) [Example 267, 3-((2-chlorophenyl)thio)-6-(6-((tetrahydro-2H-pyran-4-yl)methyl)pyridin-2-yl)-6-(thiophen-3-yl) piperidine-2,4-dione] was 1.64 µM.

Consider `Cn1nccc1Nc1cccc(C2(c3ccsc3)CC(=O)C(Sc3ccccc3Cl)C(=O)N2)n1` (stereo not drawn) [Example 269, 3-((2-chlorophenyl)thio)-6-(6-((1-methyl-1H-pyrazol-5-yl)amino)pyridin-2-yl)-6-(thiophen-3-yl)piperidine-2,4-dione], for which the concentration for half-maximal inhibition (IC50) came out at 0.073 µM. With `Cn1ccc(Nc2cccc(C3(c4ccsc4)CC(=O)C(Sc4ccccc4Cl)C(=O)N3)n2)n1` (stereo not drawn) [Example 270, 3-((2-chlorophenyl)thio)-6-(6-((1-methyl-1H-pyrazol-3-yl)amino)pyridin-2-yl)-6-(thiophen-3-yl)piperidine-2,4-dione], the half-maximal inhibitory concentration (IC50) came to 0.099 µM. Consider `Cn1cnc(Nc2cccc(C3(c4ccsc4)CC(=O)C(Sc4ccccc4Cl)C(=O)N3)n2)n1` (stereo not drawn) [Example 271, 3-((2-chlorophenyl)thio)-6-(6-((1-methyl-1H-1,2,4-triazol-3-yl)amino)pyridin-2-yl)-6-(thiophen-3-yl) piperidine-2,4-dione], for which the IC50 was 0.355 µM.

By IC50 is commonly meant the concentration that inhibits the measured activity by half.
